Patent US20230190797A1, “COMPOSITIONS AND METHODS FOR ADOPTIVE CELL THERAPY” (MEMORIAL SLOAN KETTERING CANCER CENTER, priority 2017, published 2023)
Read-outs that look alike come from different tables or passages of the source.

Key:
[1] = test system: HEK293T cells expressing CPG2 variants; assay: Viability of HEK293T cells expressing CPG2 variants exposed to prodrug; type: cell-based, human
Protocol: FIG. 9 provides exemplary data showing that that cell-secreted and transmembrane CPG2 expressed in stably transfected cells activates an AIS prodrug. Expression of CPG2 without a signal peptide (CPG2nosigp) was employed as a control. 293t cells stably transfected with CPG2 variants were exposed to P-AMS (1 μM) for 48 hours and analyzed by bright field microscopy (FIG. 9A). Cells were exposed to varying concentrations of P-AMS and cell viability was analyzed at 48 hr post treatment (FIG. 9B).
Expression of CPG2 without a signal peptide (CPG2nosigp) was employed as a control. HEK293t cells stably transfected with CPG2 variants were exposed to P-AMS (1 μM) for 48 hours and analyzed by bright field microscopy (FIG. 9A). Cells were exposed to varying concentrations of P-AMS and cell viability was analyzed at 48 hr post treatment (FIG. 9B).

[2] = test system: endogenous glutamate carboxypeptidase expressed in human prostate cells; assay: Prodrug stability towards endogenous glutamate carboxypeptidase, LNCap viability; type: cell-based
Source text: This prodrug/drug combination was chosen for further development of the SEAKER systems.

[3] = in vivo; details: NOD, mouse
[4] = mouse, in vivo
[5] = test system: primary T-cells; assay: CellTitre Glo in vitro cytotoxicity, primary T cells; type: cell-based; details: prodrug versus AMS
[6] = test system: myeloid leukemia cell line SET2; assay: Cytotoxicity, SET2; type: cell-based; details: Set2, prodrug versus AMS
[7] = test system: HEK293T (kidney); assay: CellTitre Glo in vitro cytotoxicity, HEK293T; type: cell-based, human; details: prodrug versus AMS
[8] = test system: SET2 cells; assay: SET2 viability with prodrug plus enzyme or enzyme-containing supernatant; type: cell-based; details: increasing prodrug
Protocol: Recombinant CPG2 protein was initially synthesized, purified (FIGS. 18A and 18B), and incubated with increasing concentrations of prodrug in a glutamate release assay (FIG. 17C). Mass spectrometry was used to determine that the glutamate moiety was released from all of the glutamate prodrugs.
Cell viability was measured by CellTitre-Glo® luminescence assay.
To determine to respective enzyme output of the Beta-lactamase constructs relative to the previous CPG2 constructs, a quantitative sandwich ELISA was used to determine the concentration (ng/mL) of purified recombinant CPG2, and a quantitative nitrocefin assay was used to determine the concentration (ng/mL) of purified recombinant Beta-lactamase (FIG. 25A). Cell viability was measured by CellTitre-Glo® luminescence in the presence of prodrug (glut-AMS or ceph-AMS) and varying concentrations of purified recombinant CPG2 or Beta-lactamase (FIG. 25B).

[9] = Cell permeability in CACO-2 cells; type: in vitro ADME; details: human, read-out: Efflux Ratio (B-A/A-B)

## NS(=O)(=O)OC[C@H]1O[C@@H](n2cnc3c(NC(=O)N[C@@H](CCC(=O)O)C(=O)O)ncnc32)[C@H](O)[C@@H]1O [P-AMS, ((9-((2R,3R,4S,5R)-3,4-dihydroxy-5-((sulfamoyloxy)methyl)tetrahydrofuran-2-yl)-9H-purin-6-yl)carbamoyl)-L-glutamic acid]
[1]; HEK293T cells expressing CPG intracellularly
  activation of prodrug by cells expressing CPG intracellularly: not activated
[1]; stably transfected HEK293T, cell-secreted and transmembrane CPG2, 48 hr, no-signal-peptide control did not
  cell death of cells expressing secreted or transmembrane CPG2: significant cell death
[2]
  stability in presence of endogenous glutamate carboxypeptidase: remained stable
[3]
  half-life: 30 to 40 min
[4]
  toxicity in mice: non-toxic

## Nc1ncnc2c1ncn2[C@@H]1O[C@H](COS(=O)(=O)NCC2=C(C(=O)O)N3C(=O)[C@@H](NC(=O)Cc4cccs4)[C@H]3SC2)[C@@H](O)[C@H]1O [ceph-AMS]
[5]
  Selective Index, Human T cell: >6
[6]
  Selective Index, Set2: ~64
[7]
  Selective Index, HEK293t: ~3
[8]
  SET2 cell viability with Beta-lactamase supernatant: significant decrease in cell viability

## CN(C)C(=O)C(CCN1CCC(O)(c2ccc(Cl)cc2)CC1)(c1ccccc1)c1ccccc1 [Loperamide]
[9]; Caco-2, with Ver (concentration not stated), + Ver
  efflux ratio: 0.7
[9]; Caco-2, without Ver
  efflux ratio: 7.7
